For 41 compounds, IC50 results are on record in ChEMBL document CHEMBL1144422, “Symmetrical bis-quinolinium compounds: new human choline kinase inhibitors with antiproliferative activity against the HT-29 cell line” (J Med Chem, 2005).

One test addresses Choline kinase alpha (Homo sapiens, UniProt P35790). The test is described as follows: Ex vivo inhibitory concentration against human choline kinase.
The test system of test [1] is HT-29. The test is described as follows: In vitro antiproliferative effect in […] HT 29 cells. Particulars: Homo sapiens. The format is functional, cell-based.
The subject of test [2] is HT-29. The test is described as follows: Antiproliferative activity against HT 29 cells. The settings on record: Homo sapiens. The format is functional, cell-based.

Sequence of Choline kinase alpha (P35790 whole entry): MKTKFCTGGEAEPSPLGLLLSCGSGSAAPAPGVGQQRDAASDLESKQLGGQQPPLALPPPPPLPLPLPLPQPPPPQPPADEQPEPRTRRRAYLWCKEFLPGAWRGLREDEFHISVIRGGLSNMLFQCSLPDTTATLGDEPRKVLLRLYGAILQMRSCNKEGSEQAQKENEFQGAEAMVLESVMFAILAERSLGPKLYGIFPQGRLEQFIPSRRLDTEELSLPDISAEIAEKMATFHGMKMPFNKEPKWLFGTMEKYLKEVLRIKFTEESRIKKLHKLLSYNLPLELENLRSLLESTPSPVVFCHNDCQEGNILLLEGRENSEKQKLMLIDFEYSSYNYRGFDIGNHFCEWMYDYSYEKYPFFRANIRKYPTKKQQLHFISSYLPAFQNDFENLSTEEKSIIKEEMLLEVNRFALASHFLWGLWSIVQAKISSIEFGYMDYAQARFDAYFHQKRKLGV

Broadly, the IC50 is the point on the concentration scale where inhibition reaches its midpoint. Low readings indicate greater potency, high ones weaker potency. Regarding `Nc1cc[n+](Cc2ccc(CCc3ccc(C[n+]4ccc(N)c5ccccc54)cc3)cc2)c2ccccc12`, the IC50 at Choline kinase alpha was found to be 80000 nM; in the test on HT-29 [1], 2000 nM.

Regarding `Nc1cc[n+](Cc2ccc(CCc3ccc(C[n+]4ccc(N)c5ccc(Cl)cc54)cc3)cc2)c2cc(Cl)ccc12`, the IC50 was > 200000 nM against Choline kinase alpha and 1900 nM in the test with HT-29 [1].

Regarding `Nc1cc[n+](Cc2cccc(-c3cccc(C[n+]4ccc(N)c5ccc(Cl)cc54)c3)c2)c2cc(Cl)ccc12`, the results for the IC50 against Choline kinase alpha and with HT-29 [1] were 20600 nM and 1900 nM, respectively. The matching figures for `CN(c1ccccc1)c1cc[n+](Cc2ccc(-c3ccc(C[n+]4ccc(N(C)c5ccccc5)c5ccccc54)cc3)cc2)c2ccccc12`: 3000 nM and 600 nM.

With `CN(c1ccccc1)c1cc[n+](Cc2ccc(-c3ccc(C[n+]4ccc(N(C)c5ccccc5)c5ccc(Cl)cc54)cc3)cc2)c2cc(Cl)ccc12`, the IC50 stood at 11400 nM against Choline kinase alpha and 500 nM with HT-29 [1]. The matching figures for `Cc1c(N)ccc2c(N(C)c3ccccc3)cc[n+](Cc3ccc(CCc4ccc(C[n+]5ccc(N(C)c6ccccc6)c6ccc(N)c(C)c65)cc4)cc3)c12`: 133000 nM and 7000 nM.

In the test with HT-29 [1], `CN(c1ccc(Cl)cc1)c1cc[n+](Cc2ccc(-c3ccc(C[n+]4ccc(N(C)c5ccc(Cl)cc5)c5ccc(Cl)cc54)cc3)cc2)c2cc(Cl)ccc12` came in with an IC50 of 1200 nM. As for `Cc1c[n+](Cc2ccc(-c3ccc(C[n+]4cc(C)c(N)c5ccccc54)cc3)cc2)c2ccccc2c1N`, the IC50 is > 200000 nM on Choline kinase alpha and 3300 nM with HT-29 [1]. For `Nc1cc[n+](Cc2ccc(-c3ccc(C[n+]4ccc(N)c5ccc(Cl)cc54)cc3)cc2)c2cc(Cl)ccc12`, in that order: 63300 nM and 3200 nM. Regarding `CN(C)c1cc[n+](Cc2ccc(CCc3ccc(C[n+]4ccc(N(C)C)c5ccccc54)cc3)cc2)c2ccccc12`, the values for the IC50 against Choline kinase alpha and in the test on HT-29 [1] were 10200 nM and 500 nM, respectively. On to `c1ccc2c(c1)c(N1CCCCCC1)cc[n+]2Cc1ccc(-c2ccc(C[n+]3ccc(N4CCCCCC4)c4ccccc43)cc2)cc1`, for which the IC50 is 2200 nM against Choline kinase alpha and 500 nM with HT-29 [1]. Regarding `CN(C)c1cc[n+](Cc2cccc(-c3cccc(C[n+]4ccc(N(C)C)c5ccc(Cl)cc54)c3)c2)c2cc(Cl)ccc12`, the IC50 with HT-29 [1] was determined as 700 nM. Turning to `Cc1c[n+](Cc2cccc(-c3cccc(C[n+]4cc(C)c(N)c5ccccc54)c3)c2)c2ccccc2c1N`, the IC50 on Choline kinase alpha stood at 11900 nM; in the test on HT-29 [1], 4400 nM. With `c1ccc2c(c1)c(N1CCCCCC1)cc[n+]2Cc1ccc(CCc2ccc(C[n+]3ccc(N4CCCCCC4)c4ccccc43)cc2)cc1`, the results for the IC50 at Choline kinase alpha and in the test on HT-29 [1] were 600 nM and 300 nM, respectively.

For `c1cc(C[n+]2ccc(N3CCCCCC3)c3ccccc32)cc(-c2cccc(C[n+]3ccc(N4CCCCCC4)c4ccccc43)c2)c1`, the half-inhibitory concentration (IC50) against Choline kinase alpha and with HT-29 [1] was 500 nM each time. On to `CN(c1ccc(Cl)cc1)c1cc[n+](Cc2cccc(-c3cccc(C[n+]4ccc(N(C)c5ccc(Cl)cc5)c5ccccc54)c3)c2)c2ccccc12`, for which the IC50 in the test on HT-29 [1] was 1500 nM. In the test with HT-29 [1], `Clc1ccc2c(N3CCCC3)cc[n+](Cc3cccc(-c4cccc(C[n+]5ccc(N6CCCC6)c6ccc(Cl)cc65)c4)c3)c2c1` registered an IC50 of 400 nM. `CN(C)c1cc[n+](Cc2ccc(CCc3ccc(C[n+]4ccc(N(C)C)c5ccc(Cl)cc54)cc3)cc2)c2cc(Cl)ccc12`: the IC50 on Choline kinase alpha worked out at 9000 nM; in the test with HT-29 [1], 270 nM; in the test on HT-29 [2] it was 450 nM. Turning to `CN(c1ccc(Cl)cc1)c1cc[n+](Cc2cccc(-c3cccc(C[n+]4ccc(N(C)c5ccc(Cl)cc5)c5ccc(Cl)cc54)c3)c2)c2cc(Cl)ccc12`, the IC50 in the test with HT-29 [1] stood at 1900 nM. The same measure, in the same setting: with `Clc1ccc2c(N3CCCC3)cc[n+](Cc3ccc(CCc4ccc(C[n+]5ccc(N6CCCC6)c6ccc(Cl)cc65)cc4)cc3)c2c1` the figure was 200 nM.

On to `CN(c1ccccc1)c1cc[n+](Cc2ccc(CCc3ccc(C[n+]4ccc(N(C)c5ccccc5)c5ccccc54)cc3)cc2)c2ccccc12`, for which the IC50 was 1400 nM on Choline kinase alpha and 700 nM with HT-29 [1]. Regarding `CN(c1ccc(Cl)cc1)c1cc[n+](Cc2ccc(CCc3ccc(C[n+]4ccc(N(C)c5ccc(Cl)cc5)c5ccc(Cl)cc54)cc3)cc2)c2cc(Cl)ccc12`, in the test with HT-29 [1], the IC50 stood at 800 nM.

`CN(c1ccc(Cl)cc1)c1cc[n+](Cc2ccc(-c3ccc(C[n+]4ccc(N(C)c5ccc(Cl)cc5)c5ccccc54)cc3)cc2)c2ccccc12` [RSM-932A] returned an IC50 with HT-29 [1] of 1200 nM.

Take `Cc1c(N)ccc2c(N(C)c3ccc(Cl)cc3)cc[n+](Cc3ccc(-c4ccc(C[n+]5ccc(N(C)c6ccc(Cl)cc6)c6ccc(N)c(C)c65)cc4)cc3)c12`: the IC50 is 46100 nM against Choline kinase alpha and 19400 nM with HT-29 [1]. In the test with HT-29 [1], `CN(c1ccc(Cl)cc1)c1cc[n+](Cc2ccc(CCc3ccc(C[n+]4ccc(N(C)c5ccc(Cl)cc5)c5ccccc54)cc3)cc2)c2ccccc12` had an IC50 of 700 nM. As for `Cc1c(N)ccc2c(N(C)c3ccc(Cl)cc3)cc[n+](Cc3ccc(CCc4ccc(C[n+]5ccc(N(C)c6ccc(Cl)cc6)c6ccc(N)c(C)c65)cc4)cc3)c12`, the results for the IC50 against Choline kinase alpha and in the test on HT-29 [1] were 57500 nM and 19500 nM, respectively. For `Nc1cc[n+](Cc2ccc(-c3ccc(C[n+]4ccc(N)c5ccccc54)cc3)cc2)c2ccccc12`, in that order: 81100 nM and 2200 nM.

With `c1ccc(Nc2cc[n+](Cc3ccc(CCc4ccc(C[n+]5ccc(Nc6ccccc6)c6ccccc65)cc4)cc3)c3ccccc23)cc1`, the figures for the IC50 at Choline kinase alpha and in the test with HT-29 [1] were 2300 nM and 300 nM, respectively. As to `CN(c1ccccc1)c1cc[n+](Cc2ccc(CCc3ccc(C[n+]4ccc(N(C)c5ccccc5)c5ccc(Cl)cc54)cc3)cc2)c2cc(Cl)ccc12`, the values for the IC50 against Choline kinase alpha and in the test on HT-29 [1] were 3500 nM and 500 nM, respectively.

As to `CN(C)c1cc[n+](Cc2cccc(-c3cccc(C[n+]4ccc(N(C)C)c5ccccc54)c3)c2)c2ccccc12`, the IC50 against Choline kinase alpha amounted to 4400 nM; in the test on HT-29 [1], 1600 nM.

Turning to `Nc1cc[n+](Cc2cccc(-c3cccc(C[n+]4ccc(N)c5ccccc54)c3)c2)c2ccccc12`, the figures for the IC50 on Choline kinase alpha and in the test on HT-29 [1] were 1200 nM and 1900 nM, respectively. For `CN(c1ccccc1)c1cc[n+](Cc2cccc(-c3cccc(C[n+]4ccc(N(C)c5ccccc5)c5ccc(Cl)cc54)c3)c2)c2cc(Cl)ccc12`, the results for the IC50 against Choline kinase alpha and in the test on HT-29 [1] were 3100 nM and 1000 nM, respectively.

On to `c1ccc(Nc2cc[n+](Cc3ccc(-c4ccc(C[n+]5ccc(Nc6ccccc6)c6ccccc65)cc4)cc3)c3ccccc23)cc1`, for which the IC50 against Choline kinase alpha is 17800 nM; with HT-29 [1], 700 nM. For `CN(c1ccccc1)c1cc[n+](Cc2cccc(-c3cccc(C[n+]4ccc(N(C)c5ccccc5)c5ccccc54)c3)c2)c2ccccc12`, in that order: 400 nM and 800 nM. With `Cc1c(N)ccc2c(N(C)c3ccccc3)cc[n+](Cc3ccc(-c4ccc(C[n+]5ccc(N(C)c6ccccc6)c6ccc(N)c(C)c65)cc4)cc3)c12`, the IC50 came out at 96100 nM on Choline kinase alpha and 25200 nM in the test with HT-29 [1]. For the compound `c1ccc(Nc2cc[n+](Cc3cccc(-c4cccc(C[n+]5ccc(Nc6ccccc6)c6ccccc65)c4)c3)c3ccccc23)cc1`, the IC50 against Choline kinase alpha was found to be 1300 nM; with HT-29 [1], 1600 nM.

As for `Cc1c(N)ccc2c(N(C)c3ccc(Cl)cc3)cc[n+](Cc3cccc(-c4cccc(C[n+]5ccc(N(C)c6ccc(Cl)cc6)c6ccc(N)c(C)c65)c4)c3)c12`, the results for the IC50 at Choline kinase alpha and in the test on HT-29 [1] were 147000 nM and 33000 nM, respectively. The matching figures for `CN(C)c1cc[n+](Cc2ccc(-c3ccc(C[n+]4ccc(N(C)C)c5ccc(Cl)cc54)cc3)cc2)c2cc(Cl)ccc12`: 20600 nM and 800 nM. Take `CN(C)c1cc[n+](Cc2ccc(-c3ccc(C[n+]4ccc(N(C)C)c5ccccc54)cc3)cc2)c2ccccc12`: the values for the IC50 on Choline kinase alpha and with HT-29 [1] were 39700 nM and 1700 nM, respectively.

Regarding `Cc1c(N)ccc2c(N(C)c3ccccc3)cc[n+](Cc3cccc(-c4cccc(C[n+]5ccc(N(C)c6ccccc6)c6ccc(N)c(C)c65)c4)c3)c12`, the IC50 at Choline kinase alpha is 56800 nM; in the test on HT-29 [1] it was 3800 nM. For `Clc1ccc2c(N3CCCC3)cc[n+](Cc3ccc(-c4ccc(C[n+]5ccc(N6CCCC6)c6ccc(Cl)cc65)cc4)cc3)c2c1`, in that order: 19800 nM and 2400 nM.
